In data set [1] the target is woodchuck hepatitis virus DNA polymerase (Woodchuck hepatitis B virus, UniProt P03160). As to the kind of experiment: Inhibition of woodchuck hepatitis virus DNA polymerase by triphosphates. In kind it is biochemical. Particulars: read-out: WHB DNA Pol IC50.
The next data set deals with T1, human DNA polymerase α (Homo sapiens, UniProt P09884).
T1 sequence (P09884 1-1462): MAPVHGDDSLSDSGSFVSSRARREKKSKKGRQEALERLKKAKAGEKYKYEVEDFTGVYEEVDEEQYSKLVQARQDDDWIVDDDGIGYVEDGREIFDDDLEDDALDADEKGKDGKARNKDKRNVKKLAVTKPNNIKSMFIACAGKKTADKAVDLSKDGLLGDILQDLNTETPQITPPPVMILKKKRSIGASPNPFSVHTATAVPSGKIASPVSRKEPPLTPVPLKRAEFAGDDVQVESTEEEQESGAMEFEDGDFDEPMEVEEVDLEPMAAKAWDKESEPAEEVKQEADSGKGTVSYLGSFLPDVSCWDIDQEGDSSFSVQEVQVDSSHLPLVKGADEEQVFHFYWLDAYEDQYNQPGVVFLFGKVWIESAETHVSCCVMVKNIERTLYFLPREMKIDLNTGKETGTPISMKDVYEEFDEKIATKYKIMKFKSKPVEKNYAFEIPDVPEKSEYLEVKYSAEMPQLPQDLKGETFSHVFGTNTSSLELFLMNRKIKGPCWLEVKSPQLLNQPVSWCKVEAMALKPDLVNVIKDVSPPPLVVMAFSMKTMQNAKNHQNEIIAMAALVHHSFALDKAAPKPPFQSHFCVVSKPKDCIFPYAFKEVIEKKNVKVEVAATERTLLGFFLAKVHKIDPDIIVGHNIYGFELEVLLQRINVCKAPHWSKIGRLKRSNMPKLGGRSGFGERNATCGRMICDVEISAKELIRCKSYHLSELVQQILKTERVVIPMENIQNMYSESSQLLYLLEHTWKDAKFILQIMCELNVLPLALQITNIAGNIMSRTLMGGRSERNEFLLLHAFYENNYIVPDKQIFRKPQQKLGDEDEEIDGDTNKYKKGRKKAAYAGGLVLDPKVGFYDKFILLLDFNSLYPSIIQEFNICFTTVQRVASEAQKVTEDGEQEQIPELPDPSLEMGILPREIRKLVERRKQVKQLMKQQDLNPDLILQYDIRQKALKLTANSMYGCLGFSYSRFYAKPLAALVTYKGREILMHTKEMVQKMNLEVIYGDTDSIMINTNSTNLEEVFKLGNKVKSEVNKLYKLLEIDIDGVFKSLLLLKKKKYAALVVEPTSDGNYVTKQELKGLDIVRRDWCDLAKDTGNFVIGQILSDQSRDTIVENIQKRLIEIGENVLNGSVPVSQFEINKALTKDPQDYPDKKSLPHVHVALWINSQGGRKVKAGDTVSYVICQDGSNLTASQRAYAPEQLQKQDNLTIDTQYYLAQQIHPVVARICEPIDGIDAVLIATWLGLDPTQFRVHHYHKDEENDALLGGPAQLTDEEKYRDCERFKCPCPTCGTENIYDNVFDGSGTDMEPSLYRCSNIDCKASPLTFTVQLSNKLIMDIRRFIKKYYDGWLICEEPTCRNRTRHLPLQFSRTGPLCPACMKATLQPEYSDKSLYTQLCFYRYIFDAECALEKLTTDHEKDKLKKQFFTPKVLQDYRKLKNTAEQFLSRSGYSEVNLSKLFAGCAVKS
As to the kind of experiment: Inhibition of human DNA polymerase α by triphosphates. Type of data set: biochemical. The conditions noted are these: read-out: DNA Pol α Ki.

Another data set addresses human DNA polymerase β (Homo sapiens, UniProt P06746). The data set is described as follows: Inhibition of human DNA polymerase β by triphosphates. In kind it is biochemical. Particulars: read-out: DNA Pol β Ki.
The subject of data set [2] is Hepatitis B virus. As to the kind of experiment: Inhibition of HBV replication in transfected HepG-2 (2.2.15) cells (HBV virion DNA and replicative intermediates, blot hybridization). Type of data set: cell-based. As to the method: The assay used herein to evaluate the ability of the disclosed compounds to inhibit the replication of HBV is described in detail in Korba and Gerin, Antiviral Res. 19: 55-70 (1992). […] The toxicity and anti-HBV activity of (−)-β-L-2-hydroxymethyl-5-(5-fluorocytosin-1-yl)-1,3-oxathiolane ((−)-β-L-FTC) and β-D-2′,3′-dideoxycytidine (β-D-ddC) are included as controls. The other compounds disclosed herein can be evaluated similarly.
The antiviral evaluations were performed on two separate passages of cells, two cultures per passage (4 cultures total). All wells, in all plates, were seeded at the same density and at the same time.
(Korba and Gerin, Antiviral Res. 19: 55-70, 1992). The levels of integrated HBV DNA in each cellular DNA preparation (which remain constant on a per cell basis in these experiments) were used to calculate the levels of intracellular HBV DNA forms, thereby eliminating technical variations inherent in the blot hybridization assays.
(§1) Toxicity analyses were performed in order to assess whether any observed antiviral effects were due to a general effect on cell viability. The method used was based on the uptake of neutral red dye, a standard and widely used assay for cell viability in a variety of virus-host systems, including HSV (herpes simplex virus) and HIV. The test compounds were used in the form of 40 mM stock solutions in DMSO (frozen on dry ice). Daily aliquots of the test samples were made and frozen at −20° C. so that each individual aliquot would be subjected to a single freeze-thaw cycle. The daily test aliquots were thawed, suspended into culture medium at room temperature and immediately added to the cell cultures. The compounds were tested at 0.01 to 10 μM for antiviral activity. The compounds were tested for toxicity at concentrations from 1 to 300 μM.

Data set [3] in a line: Toxicity analysis by uptake of neutral red dye in 2.2.15 cell cultures. The conditions noted are these: human. As to the method: as §1
(§2) Toxicity analyses were performed in 96-well flat bottomed tissue culture plates. Cells for the toxicity analyses were cultured and treated with test compounds with the same schedule as used for the antiviral evaluations. Each compound was tested at 4 concentrations, each in triplicate cultures. Uptake of neutral red dye was used to determine the relative level of toxicity. The absorbance of internalized dye at […] (A510) was used for the quantitative analysis. Values are presented as a percentage of the average A510 values (± standard deviations) in 9 separate cultures of untreated cells maintained on the same 96-well plate as the test compounds.

Data set [4] has as its system 2.2.15 cells (HepG2 cells transformed with hepatitis virion). Described as above. Particulars: read-out: Cytotoxity IC50 ± SD; Table 1; neutral red dye uptake; 2.2.15 cells. On the procedure:
as §1, §2

For data set [5] the test system is unchanged. Particulars: typically observed, Korba and Gerin 1992; read-out: Concentration giving a 2-fold reduction in dye uptake; cited from earlier work.
Data set [6] has as its system Hepatitis B virus. Particulars: previous studies, Korba and Gerin 1992; cited from earlier work.

Values joined by “and” are separate entries in the source; they are usually repeats but may differ in a detail not shown here. Equal values may be shown once. Read-outs that look alike come from different tables or passages of the source.

What is called Ki is a measure of affinity in units of concentration, obtained from inhibition or displacement. One may read the EC90 as the concentration needed for an effect of 90%. As usually defined, the EC50 is the concentration needed to bring the measured effect to its halfway point.

Chain of woodchuck hepatitis virus DNA polymerase (P03160 whole entry): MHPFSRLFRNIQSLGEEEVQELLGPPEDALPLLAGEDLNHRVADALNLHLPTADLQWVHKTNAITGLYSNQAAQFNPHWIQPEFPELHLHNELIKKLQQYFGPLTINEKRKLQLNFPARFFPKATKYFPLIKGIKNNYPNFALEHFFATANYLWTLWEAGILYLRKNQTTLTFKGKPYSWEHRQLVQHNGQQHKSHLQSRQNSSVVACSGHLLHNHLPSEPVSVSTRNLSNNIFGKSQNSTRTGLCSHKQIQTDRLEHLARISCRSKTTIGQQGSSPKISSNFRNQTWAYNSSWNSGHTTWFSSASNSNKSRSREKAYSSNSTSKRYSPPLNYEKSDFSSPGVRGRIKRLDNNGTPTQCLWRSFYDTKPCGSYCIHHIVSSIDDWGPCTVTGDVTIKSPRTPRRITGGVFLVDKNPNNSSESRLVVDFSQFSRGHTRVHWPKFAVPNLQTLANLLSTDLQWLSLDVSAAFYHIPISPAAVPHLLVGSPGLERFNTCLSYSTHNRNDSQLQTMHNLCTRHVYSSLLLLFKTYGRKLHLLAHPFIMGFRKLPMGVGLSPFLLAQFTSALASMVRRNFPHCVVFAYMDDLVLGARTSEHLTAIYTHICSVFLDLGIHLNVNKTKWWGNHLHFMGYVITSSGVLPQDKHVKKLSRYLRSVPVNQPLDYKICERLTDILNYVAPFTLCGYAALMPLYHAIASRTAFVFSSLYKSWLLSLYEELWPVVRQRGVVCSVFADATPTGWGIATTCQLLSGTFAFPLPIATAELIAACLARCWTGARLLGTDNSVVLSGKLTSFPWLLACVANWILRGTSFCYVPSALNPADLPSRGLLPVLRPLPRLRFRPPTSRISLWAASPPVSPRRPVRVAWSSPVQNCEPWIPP

Take `Nc1nc(=O)n([C@@H]2CC[C@H](COP(=O)(O)OP(=O)(O)OP(=O)(O)O)O2)cc1F` [β-L-5FDDCTP]: in data set [1], the IC50 amounted to 2 µM. The Ki on human DNA polymerase α and at human DNA polymerase β was > 100 µM throughout.
Regarding `Cc1cn([C@@H]2C[C@@H](N=[N+]=[N-])[C@H](COP(=O)(O)OP(=O)(O)OP(=O)(O)O)O2)c(=O)[nH]c1=O` [β-L-AZTPP], the IC50 in data set [1] was determined as 0.2 µM. Also, the Ki on human DNA polymerase α and at human DNA polymerase β was > 100 µM in each case.
Turning to `Nc1ccn([C@H]2CC[C@@H](CO)O2)c(=O)n1` [β-D-DDC, β-D-2′,3′-dideoxycytidine, reference compound], in the data set with Hepatitis B virus [2] (2.2.15 cells), the “Inhibition of HBV replication (depression of HBV virion DNA and HBV RI), in words” value is given as “significant depressions of HBV DNA replication”. In addition, the EC90 in the data set with Hepatitis B virus [2] (Hepatitis B virus, HepG2 2.2.15, read-out: HBV RI EC90 ± SD, Table 1, replicative intermediates (intracellular DNA), transfected HEPG-2 (2.2.15) cells) was 11 ± 2 µM; in the data set with Hepatitis B virus [2] (read-out: HBV RI EC90 ± SD, Table 1, replicative intermediates (intracellular DNA), transfected HEPG-2 (2.2.15) cells) it was 12 ± 2.4 µM. In addition, the EC50 was 1.5 ± 0.7 µM in the data set on Hepatitis B virus [2] (Hepatitis B virus, HepG2 2.2.15, read-out: HBV viron EC50 ± SD, Table 1, extracellular DNA, transfected HEPG-2 (2.2.15) cells) and 1.3 µM in the data set with Hepatitis B virus [2] (read-out: HBV viron EC50 ± SD, Table 1, extracellular DNA, transfected HEPG-2 (2.2.15) cells). In the data set on Hepatitis B virus [2] (Table 1, cytotoxicity IC50 / RI EC90), the “Selectivity Index IC50/EC90 RI” value was 20 and 18. Further, the IC50 was 216 ± 22 µM in data set [3] (Cytotoxity IC50 ± SD, Table 1, neutral red dye uptake, 2.2.15 cells); 219 µM in data set [4]; 150 to 190 µM in data set [5]. Moreover, the “Concentration giving a 90% depression of HBV RI” value with Hepatitis B virus [6] was 9 to 12 µM.
For `Cc1cn([C@@H]2CC(N=[N+]=[N-])[C@H](CO)O2)c(=O)[nH]c1=O` (stereo partly drawn) [β-L-AZT, 1-(3-Azido-2-3-dideoxy-β-L-erythro-pentofuranosyl) thymine], the EC50 in the data set with Hepatitis B virus [2] (Hepatitis B virus, HepG2 2.2.15, read-out: HBV RI EC50, Table 2, replicative intermediates (intracellular DNA), transfected Hep G-2 (2.2.15) cells) is > 10 µM; in the data set with Hepatitis B virus [2] (Hepatitis B virus, HepG2 2.2.15, read-out: HBV Virion EC50, Table 2, extracellular DNA, transfected Hep G-2 (2.2.15) cells) it was > 10 µM. This compound also came in with an IC50 in data set [3] (Cytotoxicity IC50, Table 2, Hep G-2 (2.2.15) cells) of 1000 µM.
On to `Nc1ncnc2c1ncn2[C@@H]1CC[C@H](COP(=O)(O)OP(=O)(O)OP(=O)(O)O)O1` [β-L-ddATP], for which the IC50 in data set [1] came out at 2.1 µM. Further, the Ki on human DNA polymerase α and at human DNA polymerase β was > 100 µM in each case.
As for `Nc1nc(=O)n([C@H]2O[C@@H](CO)C[C@H]2F)cc1F` [2′-F-β-L-5FDDC, 1-(2-Fluoro-2,3-dideoxy-β-L-threo-pentofuranosyl)-5-fluorocytosine], the EC50 was determined as 5 µM in the data set with Hepatitis B virus [2] (Hepatitis B virus, HepG2 2.2.15, read-out: HBV RI EC50) and 1.7 µM in the data set with Hepatitis B virus [2] (Hepatitis B virus, HepG2 2.2.15, read-out: HBV Virion EC50). Moreover, the “Selectivity Index IC50/EC50 RI” value in the data set with Hepatitis B virus [2] (Table 2, cytotoxicity IC50 / RI EC50) worked out at 42. In addition, the “Selectivity Index IC50/EC50 Virion” value in the data set on Hepatitis B virus [2] (Table 2, cytotoxicity IC50 / virion EC50) is 124. Also, the IC50 in data set [3] turned out to be 210 µM.
Consider `Nc1ccn([C@@H]2CS[C@H](COP(=O)(O)OP(=O)(O)OP(=O)(O)O)O2)c(=O)n1` [Compound 3-TC-TP, reference compound], for which, in data set [1], the IC50 turned out to be 1 µM. The Ki at human DNA polymerase α and on human DNA polymerase β was > 100 µM in each case.

Values taken from US7468357B2, “Nucleosides with anti-hepatitis B virus activity” (Emory University, priority 1994, dated 2008).
